Data on six molecules can be found in ChEMBL document CHEMBL1143968, “Lead identification of acetylcholinesterase inhibitors-histamine H3 receptor antagonists from molecular modeling” (Bioorg Med Chem, 2008).

For test [1], the target named is Acetylcholinesterase (Homo sapiens, UniProt P22303). The experiment in a line: Inhibition of AChE.
Test [2] addresses Histamine H3 receptor (Homo sapiens, UniProt Q9Y5N1). The experiment in a line: Inhibition of histamine H3 receptor.

Acetylcholinesterase, sequence (P22303 whole entry): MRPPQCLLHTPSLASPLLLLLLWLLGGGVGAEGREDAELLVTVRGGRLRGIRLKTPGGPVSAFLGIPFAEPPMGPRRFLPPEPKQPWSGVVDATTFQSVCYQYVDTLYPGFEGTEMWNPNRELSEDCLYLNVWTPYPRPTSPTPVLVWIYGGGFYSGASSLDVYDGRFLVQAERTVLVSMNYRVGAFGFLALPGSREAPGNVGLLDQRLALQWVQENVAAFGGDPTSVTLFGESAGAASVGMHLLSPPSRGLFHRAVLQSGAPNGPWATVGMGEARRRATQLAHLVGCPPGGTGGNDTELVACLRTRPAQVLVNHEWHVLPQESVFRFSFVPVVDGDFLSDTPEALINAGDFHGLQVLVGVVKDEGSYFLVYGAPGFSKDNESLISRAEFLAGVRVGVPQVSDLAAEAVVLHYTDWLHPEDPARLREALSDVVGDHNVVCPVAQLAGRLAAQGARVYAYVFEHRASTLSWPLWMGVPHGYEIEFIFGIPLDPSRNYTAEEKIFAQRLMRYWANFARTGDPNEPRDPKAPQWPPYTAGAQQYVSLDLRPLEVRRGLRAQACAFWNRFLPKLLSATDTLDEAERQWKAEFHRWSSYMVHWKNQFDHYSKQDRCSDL
Histamine H3 receptor, sequence (Q9Y5N1 whole entry): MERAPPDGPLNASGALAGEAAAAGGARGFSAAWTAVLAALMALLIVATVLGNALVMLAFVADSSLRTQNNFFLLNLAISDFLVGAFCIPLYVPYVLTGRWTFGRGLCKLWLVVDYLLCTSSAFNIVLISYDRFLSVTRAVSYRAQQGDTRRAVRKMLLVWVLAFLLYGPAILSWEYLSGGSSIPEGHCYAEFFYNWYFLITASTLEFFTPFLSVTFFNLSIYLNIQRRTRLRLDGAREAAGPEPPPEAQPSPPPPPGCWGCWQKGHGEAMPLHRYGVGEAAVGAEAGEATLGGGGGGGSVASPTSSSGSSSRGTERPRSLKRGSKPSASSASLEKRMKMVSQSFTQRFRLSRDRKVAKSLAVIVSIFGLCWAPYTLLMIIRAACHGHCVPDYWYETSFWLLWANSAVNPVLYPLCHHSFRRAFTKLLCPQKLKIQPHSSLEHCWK

As for `c1cc(OCCCN2CCCCC2)ccc1CN1CCCCC1` [JNJ-5207852], the IC50 in test [1] is 3200 nM.
Regarding `OCCC1CCN(Cc2ccc(OCCCN3CCCCC3)cc2)CC1`, the IC50 in test [2] is 0.98 nM; in test [1] it was 350 nM.
As for `OC1CCN(Cc2ccc(OCCCN3CCCCC3)cc2)CC1`, the IC50 in test [2] stood at 0.72 nM; in test [1], 2300 nM.
The molecule `COc1cc2c(cc1OC)C(=O)C(CC1CCN(Cc3ccccc3)CC1)C2` (stereo not given) [DONEPEZIL] gave an IC50 in test [2] of 350 nM.
Regarding `OCC1CCN(Cc2ccc(OCCCN3CCCCC3)cc2)CC1`, the results for the half-inhibitory concentration (IC50) in test [2] and in test [1] were 1.3 nM and 1100 nM, respectively.
As to `C[N+](C)(C)CCCCCCCCCC[N+](C)(C)C` [DECAMETHONIUM], the IC50 in test [2] was determined as 820 nM; in test [1] it was 5900 nM.
